The source of these data is ChEMBL document CHEMBL5058646 (2022).

The structures appear in SMILES notation.

One experiment concerns the target Histamine H3 receptor (Homo sapiens, UniProt Q9Y5N1). Briefly: GPCRScan assay: inhibition of H3. Details: radioligand conc. used [nm] 0.5 – 1.0, parental cells HEK Flp-In.
Experiment [1] concerns the target Cytoplasmic tyrosine-protein kinase BMX (Homo sapiens) (UniProt P51813). Briefly: BMX SGC Tm panel (DSF). The settings on record: Compound concentration 20.0 uM.
The target in experiment [2] is Myotonin-protein kinase (Homo sapiens) (UniProt Q09013). Briefly: DMPK1 SGC Tm panel (DSF). The settings on record: Compound concentration 20.0 uM.
Experiment [3] concerns the target G protein-coupled receptor kinase 5 (Homo sapiens) (UniProt P34947). Briefly: GPRK5 SGC Tm panel (DSF). Conditions: Compound concentration 20.0 uM.
The target of experiment [4] is MAP/microtubule affinity-regulating kinase 4 (Homo sapiens) (UniProt Q96L34). The experiment in a line: MARK4 SGC Tm panel (DSF). Conditions: Compound concentration 20.0 uM.
Experiment [5] addresses Cyclin-dependent kinase 16 (Homo sapiens) (UniProt Q00536). The experiment in a line: PCTK1 SGC Tm panel (DSF). Conditions: Compound concentration 20.0 uM.
Experiment [6] deals with Transcription intermediary factor 1-alpha (Homo sapiens) (UniProt O15164). Briefly: TIF1 SGC Tm panel (DSF). The settings on record: Compound concentration 20.0 uM.
Experiment [7] has as its target 5-hydroxytryptamine receptor 2A (Homo sapiens) (UniProt P28223). The settings on record: Compound concentration 10.0 uM.
The target in experiment [8] is 5-hydroxytryptamine receptor 3A (Homo sapiens) (UniProt P46098). The settings on record: Compound concentration 10.0 uM.
Experiment [9] deals with Histamine H2 receptor (Homo sapiens) (UniProt P25021). Conditions: Compound concentration 10.0 uM.
The target of experiment [10] is Alpha-1B adrenergic receptor (Homo sapiens) (UniProt P35368). The settings on record: Compound concentration 10.0 uM.
Experiment [11] concerns the target Muscarinic acetylcholine receptor M4 (Homo sapiens) (UniProt P08173). Conditions: Compound concentration 10.0 uM.
Experiment [12] has as its target Sigma non-opioid intracellular receptor 1 (Homo sapiens) (UniProt Q99720). Conditions: Compound concentration 10.0 uM.
For experiment [13], the target named is T1, Transcriptional regulator Kaiso (Homo sapiens) (UniProt Q86T24).
T1 sequence (whole entry): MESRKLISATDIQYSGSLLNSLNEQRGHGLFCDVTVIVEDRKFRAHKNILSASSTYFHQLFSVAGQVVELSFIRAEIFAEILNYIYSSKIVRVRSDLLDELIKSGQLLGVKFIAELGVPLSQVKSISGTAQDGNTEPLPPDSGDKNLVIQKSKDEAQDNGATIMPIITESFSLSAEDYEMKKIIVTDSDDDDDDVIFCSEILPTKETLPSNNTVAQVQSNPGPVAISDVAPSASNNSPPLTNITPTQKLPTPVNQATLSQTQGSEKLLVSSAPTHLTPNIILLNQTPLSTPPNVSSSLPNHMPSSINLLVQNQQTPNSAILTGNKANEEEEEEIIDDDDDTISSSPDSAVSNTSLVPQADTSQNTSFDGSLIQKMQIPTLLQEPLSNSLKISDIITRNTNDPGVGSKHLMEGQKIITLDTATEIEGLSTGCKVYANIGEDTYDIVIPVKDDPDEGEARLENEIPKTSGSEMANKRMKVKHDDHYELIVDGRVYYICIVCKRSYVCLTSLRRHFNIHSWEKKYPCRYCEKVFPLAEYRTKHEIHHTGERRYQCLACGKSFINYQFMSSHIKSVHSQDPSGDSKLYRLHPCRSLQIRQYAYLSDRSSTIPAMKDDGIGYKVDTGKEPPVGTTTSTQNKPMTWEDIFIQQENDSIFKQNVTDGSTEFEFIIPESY
Conditions: SUD4, Compound concentration 1.0 uM.

Experiment [14] concerns the target Zinc finger and BTB domain-containing protein 14 (Homo sapiens) (UniProt O43829). Conditions: SUD4, Compound concentration 1.0 uM.
The target of experiment [15] is T2, Zinc finger and BTB domain-containing protein 10 (Homo sapiens) (UniProt Q96DT7).
T2 sequence (whole entry): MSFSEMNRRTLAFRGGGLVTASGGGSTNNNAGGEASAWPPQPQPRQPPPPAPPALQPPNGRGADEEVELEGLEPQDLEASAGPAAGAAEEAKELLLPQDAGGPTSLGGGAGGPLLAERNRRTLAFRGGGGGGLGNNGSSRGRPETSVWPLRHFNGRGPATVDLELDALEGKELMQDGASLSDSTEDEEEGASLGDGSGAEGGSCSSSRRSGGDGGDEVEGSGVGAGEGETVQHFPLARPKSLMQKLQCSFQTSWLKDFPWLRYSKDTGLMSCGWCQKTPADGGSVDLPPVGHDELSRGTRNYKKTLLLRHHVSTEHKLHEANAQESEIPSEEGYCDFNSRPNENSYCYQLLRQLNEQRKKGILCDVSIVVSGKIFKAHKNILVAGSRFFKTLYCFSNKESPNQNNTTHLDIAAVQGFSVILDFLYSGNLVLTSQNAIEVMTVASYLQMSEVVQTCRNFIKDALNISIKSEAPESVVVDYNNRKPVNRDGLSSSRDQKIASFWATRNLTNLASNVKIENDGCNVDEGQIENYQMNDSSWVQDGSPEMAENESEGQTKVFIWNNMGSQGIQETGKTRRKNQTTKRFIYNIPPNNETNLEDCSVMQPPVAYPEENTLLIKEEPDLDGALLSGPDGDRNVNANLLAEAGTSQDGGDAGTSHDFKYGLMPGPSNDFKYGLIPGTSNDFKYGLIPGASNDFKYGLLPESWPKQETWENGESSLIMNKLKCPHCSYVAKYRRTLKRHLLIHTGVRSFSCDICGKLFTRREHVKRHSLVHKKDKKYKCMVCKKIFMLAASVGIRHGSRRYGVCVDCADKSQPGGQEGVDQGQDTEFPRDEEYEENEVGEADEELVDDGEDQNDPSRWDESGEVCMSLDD
The settings on record: OCI-Ly1, Compound concentration 1.0 uM.

Experiment [16] deals with Serine/threonine-protein kinase MRCK alpha (Homo sapiens) (UniProt Q5VT25). Briefly: CDC42BPA SGC Tm panel (DSF). The settings on record: Compound concentration 20.0 uM.
Serine/threonine-protein kinase MRCK alpha (Homo sapiens), sequence (Q5VT25 whole entry, looked up): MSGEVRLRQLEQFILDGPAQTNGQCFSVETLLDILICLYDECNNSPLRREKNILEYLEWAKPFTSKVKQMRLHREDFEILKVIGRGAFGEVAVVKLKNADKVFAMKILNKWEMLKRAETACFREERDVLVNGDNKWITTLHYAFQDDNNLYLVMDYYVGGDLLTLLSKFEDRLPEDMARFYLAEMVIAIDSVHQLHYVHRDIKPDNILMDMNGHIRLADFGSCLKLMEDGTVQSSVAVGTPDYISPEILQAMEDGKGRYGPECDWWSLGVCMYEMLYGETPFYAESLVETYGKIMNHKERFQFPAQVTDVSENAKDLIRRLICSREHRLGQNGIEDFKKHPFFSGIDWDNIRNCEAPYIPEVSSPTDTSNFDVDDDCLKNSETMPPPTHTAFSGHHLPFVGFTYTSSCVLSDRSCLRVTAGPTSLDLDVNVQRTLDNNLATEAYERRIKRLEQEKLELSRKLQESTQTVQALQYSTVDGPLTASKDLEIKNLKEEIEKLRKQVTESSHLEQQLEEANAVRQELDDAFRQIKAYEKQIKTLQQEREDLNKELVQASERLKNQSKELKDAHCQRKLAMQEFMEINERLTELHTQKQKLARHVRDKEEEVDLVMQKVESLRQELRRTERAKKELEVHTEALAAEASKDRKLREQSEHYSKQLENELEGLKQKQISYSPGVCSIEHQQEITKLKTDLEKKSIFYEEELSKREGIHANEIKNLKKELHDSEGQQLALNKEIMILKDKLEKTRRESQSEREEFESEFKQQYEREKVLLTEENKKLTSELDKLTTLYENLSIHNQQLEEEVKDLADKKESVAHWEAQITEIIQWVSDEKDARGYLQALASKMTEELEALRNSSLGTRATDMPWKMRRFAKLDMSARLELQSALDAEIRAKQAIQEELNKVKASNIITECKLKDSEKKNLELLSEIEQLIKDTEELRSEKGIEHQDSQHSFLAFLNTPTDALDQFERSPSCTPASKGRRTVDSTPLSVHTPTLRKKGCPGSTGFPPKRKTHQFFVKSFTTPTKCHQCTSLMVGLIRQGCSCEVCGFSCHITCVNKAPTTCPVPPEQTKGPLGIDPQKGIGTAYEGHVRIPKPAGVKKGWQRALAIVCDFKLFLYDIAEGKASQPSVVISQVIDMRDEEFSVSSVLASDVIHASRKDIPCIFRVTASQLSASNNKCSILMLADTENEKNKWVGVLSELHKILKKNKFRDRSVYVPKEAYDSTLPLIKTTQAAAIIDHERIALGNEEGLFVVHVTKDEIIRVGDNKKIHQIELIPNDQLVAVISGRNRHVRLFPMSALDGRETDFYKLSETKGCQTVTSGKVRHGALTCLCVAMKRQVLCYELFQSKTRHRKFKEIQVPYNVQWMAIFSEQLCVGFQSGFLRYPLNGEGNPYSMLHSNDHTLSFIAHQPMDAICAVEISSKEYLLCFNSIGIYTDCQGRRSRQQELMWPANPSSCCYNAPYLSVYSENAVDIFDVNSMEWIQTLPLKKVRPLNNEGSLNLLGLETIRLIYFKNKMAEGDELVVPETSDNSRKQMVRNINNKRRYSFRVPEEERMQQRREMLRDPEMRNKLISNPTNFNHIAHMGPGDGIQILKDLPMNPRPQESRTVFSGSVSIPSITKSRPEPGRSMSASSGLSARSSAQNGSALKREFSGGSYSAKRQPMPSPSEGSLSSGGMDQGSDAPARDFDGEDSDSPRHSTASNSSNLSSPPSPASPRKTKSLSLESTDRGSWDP

Histamine H3 receptor, sequence (Q9Y5N1 whole entry): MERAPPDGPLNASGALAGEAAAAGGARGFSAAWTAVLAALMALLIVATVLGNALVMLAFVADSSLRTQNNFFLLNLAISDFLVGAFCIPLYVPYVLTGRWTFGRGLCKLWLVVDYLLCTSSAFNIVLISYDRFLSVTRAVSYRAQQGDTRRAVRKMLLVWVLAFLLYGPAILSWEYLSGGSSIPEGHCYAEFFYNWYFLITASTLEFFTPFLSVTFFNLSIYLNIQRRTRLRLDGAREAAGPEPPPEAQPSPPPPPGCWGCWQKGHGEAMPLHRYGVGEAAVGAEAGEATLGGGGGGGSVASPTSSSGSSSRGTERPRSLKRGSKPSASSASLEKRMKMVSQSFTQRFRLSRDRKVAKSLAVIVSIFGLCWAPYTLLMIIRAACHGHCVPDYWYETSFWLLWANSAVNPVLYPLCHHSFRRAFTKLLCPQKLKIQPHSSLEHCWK
G protein-coupled receptor kinase 5 (Homo sapiens), sequence (P34947 whole entry, looked up): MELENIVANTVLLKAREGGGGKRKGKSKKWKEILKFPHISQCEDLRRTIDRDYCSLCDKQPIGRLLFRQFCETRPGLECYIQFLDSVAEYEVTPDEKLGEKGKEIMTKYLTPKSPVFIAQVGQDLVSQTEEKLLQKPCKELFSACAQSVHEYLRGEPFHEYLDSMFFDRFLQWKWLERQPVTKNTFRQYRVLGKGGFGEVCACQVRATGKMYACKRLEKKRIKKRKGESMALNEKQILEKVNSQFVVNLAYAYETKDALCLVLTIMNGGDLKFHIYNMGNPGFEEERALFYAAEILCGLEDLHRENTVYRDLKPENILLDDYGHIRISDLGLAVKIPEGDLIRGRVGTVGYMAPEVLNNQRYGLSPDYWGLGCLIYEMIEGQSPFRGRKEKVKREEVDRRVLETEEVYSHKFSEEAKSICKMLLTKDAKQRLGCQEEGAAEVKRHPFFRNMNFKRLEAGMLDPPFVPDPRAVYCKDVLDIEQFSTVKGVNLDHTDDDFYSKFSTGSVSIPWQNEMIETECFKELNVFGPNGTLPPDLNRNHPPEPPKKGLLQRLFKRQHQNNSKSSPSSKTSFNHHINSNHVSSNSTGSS
5-hydroxytryptamine receptor 3A (Homo sapiens), sequence (P46098 whole entry): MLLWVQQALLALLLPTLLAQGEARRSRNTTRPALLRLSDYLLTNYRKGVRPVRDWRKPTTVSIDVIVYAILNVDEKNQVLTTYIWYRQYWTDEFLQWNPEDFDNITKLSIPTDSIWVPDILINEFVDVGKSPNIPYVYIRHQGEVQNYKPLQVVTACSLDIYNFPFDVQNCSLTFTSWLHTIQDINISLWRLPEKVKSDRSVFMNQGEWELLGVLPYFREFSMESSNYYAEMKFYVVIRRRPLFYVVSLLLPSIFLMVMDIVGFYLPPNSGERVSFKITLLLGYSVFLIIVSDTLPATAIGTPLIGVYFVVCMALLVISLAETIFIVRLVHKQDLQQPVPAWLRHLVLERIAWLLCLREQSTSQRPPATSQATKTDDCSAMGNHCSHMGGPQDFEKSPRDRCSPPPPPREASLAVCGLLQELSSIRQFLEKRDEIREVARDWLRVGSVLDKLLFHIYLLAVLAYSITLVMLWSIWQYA
Cytoplasmic tyrosine-protein kinase BMX (Homo sapiens), sequence (P51813 whole entry): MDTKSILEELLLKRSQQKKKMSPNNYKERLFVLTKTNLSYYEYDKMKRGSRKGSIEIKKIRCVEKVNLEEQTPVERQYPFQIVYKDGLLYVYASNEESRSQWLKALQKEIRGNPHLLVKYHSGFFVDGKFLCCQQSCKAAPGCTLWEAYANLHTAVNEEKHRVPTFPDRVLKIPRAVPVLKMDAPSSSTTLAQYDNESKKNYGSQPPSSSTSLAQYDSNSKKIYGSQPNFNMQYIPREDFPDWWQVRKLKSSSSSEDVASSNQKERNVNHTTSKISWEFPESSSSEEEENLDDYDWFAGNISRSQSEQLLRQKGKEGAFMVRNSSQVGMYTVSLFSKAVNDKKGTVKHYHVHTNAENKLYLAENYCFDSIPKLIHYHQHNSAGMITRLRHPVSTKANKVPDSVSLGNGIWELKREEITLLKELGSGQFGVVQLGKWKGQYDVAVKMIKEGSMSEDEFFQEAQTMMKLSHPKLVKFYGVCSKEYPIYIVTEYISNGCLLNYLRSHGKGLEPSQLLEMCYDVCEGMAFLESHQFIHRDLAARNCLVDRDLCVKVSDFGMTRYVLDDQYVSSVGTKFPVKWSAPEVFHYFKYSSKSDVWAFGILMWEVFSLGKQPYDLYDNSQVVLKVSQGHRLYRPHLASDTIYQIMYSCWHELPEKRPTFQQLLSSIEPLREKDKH
Sigma non-opioid intracellular receptor 1 (Homo sapiens), sequence (Q99720 whole entry): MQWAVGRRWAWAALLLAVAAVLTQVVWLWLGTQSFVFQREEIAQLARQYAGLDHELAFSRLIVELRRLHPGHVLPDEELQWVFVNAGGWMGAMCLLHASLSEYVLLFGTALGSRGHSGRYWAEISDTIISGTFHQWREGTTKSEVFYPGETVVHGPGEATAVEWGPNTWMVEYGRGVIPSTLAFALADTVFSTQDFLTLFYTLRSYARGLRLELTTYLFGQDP
Myotonin-protein kinase (Homo sapiens), sequence (Q09013 whole entry): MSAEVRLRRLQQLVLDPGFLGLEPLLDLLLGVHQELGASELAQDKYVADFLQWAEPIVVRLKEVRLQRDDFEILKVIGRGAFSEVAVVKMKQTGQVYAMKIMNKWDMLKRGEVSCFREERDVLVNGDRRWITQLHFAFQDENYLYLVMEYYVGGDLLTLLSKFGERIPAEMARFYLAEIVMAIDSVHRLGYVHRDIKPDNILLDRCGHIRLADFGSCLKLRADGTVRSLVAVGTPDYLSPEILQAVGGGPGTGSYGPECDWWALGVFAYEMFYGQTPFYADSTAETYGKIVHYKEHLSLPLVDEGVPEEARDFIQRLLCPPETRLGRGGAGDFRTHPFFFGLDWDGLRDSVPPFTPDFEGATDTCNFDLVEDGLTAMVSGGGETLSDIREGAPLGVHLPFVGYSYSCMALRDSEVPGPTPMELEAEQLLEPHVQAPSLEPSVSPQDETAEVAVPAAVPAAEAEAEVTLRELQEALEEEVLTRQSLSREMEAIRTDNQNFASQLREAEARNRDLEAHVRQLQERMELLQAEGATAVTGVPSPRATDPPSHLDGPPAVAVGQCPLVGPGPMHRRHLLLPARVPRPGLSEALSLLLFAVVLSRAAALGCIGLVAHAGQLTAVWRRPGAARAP

Consider `C[C@@H]1CN(c2ncc(Cl)c(Nc3ccc4c(c3)n(CCC(C)(C)O)c(=O)n4C)n2)C[C@H](C)C1(F)F`, for which the figures for the Ki at Histamine H3 receptor (read-out: Ki) and on Histamine H3 receptor (read-out: pKi (converted)) were 2330 nM and 2040 nM, respectively. Moreover, the Tm in [1] was 48 °C; in experiment [2], 50 °C; in experiment [3], 40 °C; in experiment [4] it was 36 °C; in experiment [5], 52 °C; in [6], 36 °C. The Tm in [16] was 43 °C. In addition, the inhibition in experiment [7] was 23.6%; in [8], -5.81%; in [9] it was 43.7%; in experiment [10], 12.4%; in experiment [11] it was -2.86%; in experiment [12], 47.4%. In addition, the figures for the LogFC in [13], in [14] and in experiment [15] were 0.0744, 0.0306 and 0.103, respectively.

As usually defined, the Tm is the temperature at which the thermal transition is half complete. Broadly, the inhibition is the relative decrease from the control value, in per cent.
